Laboratory results published in ChEMBL document CHEMBL1137513, “Synthesis and biological activities of quinazoline derivatives with ortho-phenol-quaternary ammonium salt groups” (Bioorg Med Chem, 2007).
Active and inactive are the calls of the source. No cut-off for these calls is given here.

Legend:
[1] = system: DNA; test: Binding affinity to calf thymus DNA at 2 uM by thermal denaturation study; type: nucleic-acid assay; details: Bos taurus
[2] = system: Escherichia phage T7; test: Inhibition of T7 RNA polymerase transcription at 10 uM after irradiation; type: functional
[3] = system: Escherichia phage T7; test: Inhibition of T7 RNA polymerase transcription at 5 uM after irradiation; type: functional
[4] = system: Escherichia coli; test: Induction of pBR322 DNA interstand cross link at 1 uM by agarose gel electrophoresis assay
[5] = system: Escherichia coli; test: Induction of pBR322 DNA interstand cross link at 100 uM by agarose gel electrophoresis assay
[6] = system: Escherichia coli; test: Induction of pBR322 DNA interstand cross link at 5 uM by agarose gel electrophoresis assay
[7] = system: Escherichia coli; test: Induction of pBR322 DNA interstand cross link at pH 7.7 by agarose gel electrophoresis assay
[8] = system: Escherichia phage T7; test: Inhibition of T7 RNA polymerase transcription at 20 uM after irradiation; type: functional

| Structure (SMILES) | ΔTm [1] [°C] | Activity [2] | Activity [3] | Activity [4] [%] | Activity [5] | Activity [6] [%] | Activity [7] | Activity [8] |
| --- | --- | --- | --- | --- | --- | --- | --- | --- |
| COc1cc2nc(Cl)nc(Nc3ccc(O)c(C[N+](C)(C)C)c3)c2cc1OC | 5.8 | Active | Active | – | – | – | – | – |
| COc1cc2nc(Nc3ccc(O)c(C[N+](C)(C)C)c3)nc(Nc3ccc(O)c(C[N+](C)(C)C)c3)c2cc1OC | 8.6 | Active | Active | 28 | Active | 46 | Active | – |
| COc1cc2nc(Nc3ccc(O)c(C[N+](C)(C)C)c3)nc(N)c2cc1OC | 7.4 | Active | Active | – | – | – | – | – |
| C[N+](C)(C)Cc1cc(CCC(=O)NCCNC(=O)CCc2ccc(O)c(C[N+](C)(C)C)c2)ccc1O | 0.5 | – | – | – | inactive | – | – | inactive |
